Experimental data as given in patent publication US20010056085A1, “Methods of using vesicant drug formulations” (priority 1996, published 2001).
Several values for one entry are separate records, joined by “and”; a condition that tells them apart may be missing. Equal values may be shown once. Read-outs that look alike come from different tables or passages of the source.

Assay: Half-life of ADR destruction by UVA light in the presence of test compounds (decrease in absorbance at 480 nm)
Assay type: physicochemical
[1] = UVA light, 100 μM test compound alone
[2] = UVA light, 100 μM test compound with 0.5 μM riboflavin

SMILES	Half-Life of ADR Destruction, 100 μM Test Compound [1]	Half-Life of ADR Destruction, 100 μM Test Compound and 0.5 μM Riboflavin [2]	Half-Life of ADR Destruction, 100 μM Test Compound and 0.5 μM Riboflavin	Half-Life of ADR Destruction, 100 μM Test Compound
COc1ccc(CCO)cc1 [4-Methoxy Phenylethyl Alcohol]	43.0 min	5.47 min	–	–
COc1ccc(C=O)c2ccccc12 [4-Methoxy-1-naphthaldehyde]	1.15 min	1.19 min	–	–
COc1ccc(C=C(C)C=O)cc1 [4-Methoxy-α-Methyl Cinnamaldehyde]	–	20.1 min	–	–
CCC(=O)c1ccc(OC)cc1 [4-Methoxypropriophenone]	–	–	30.1 min	–
Cc1cccc2[nH]ccc12 [4-Methyl Indole]	–	18.7 ± 4.0 min	–	–
O=C(O)c1ccc([N+](=O)[O-])cc1 [4-Nitro Benzoic Acid]	–	50.2 min	–	–
CCCCCc1ccc(N)cc1 [4-Pentyl Aniline]	–	4.12 min	–	–
Nc1ccc(Oc2ccccc2)cc1 [4-Phenoxyaniline]	75.3 min	15.1 min	–	–
O=C(O)c1ccc(-c2ccccc2)cc1 [4-Phenyl Benzoic Acid]	43.0 min	–	–	–
O=C(O)CCCc1ccccc1 [4-Phenyl Butyric Acid]	43.0 min	33.5 min	–	–
O=C(O)Cc1ccc(-c2ccccc2)cc1 [4-Phenyl Phenylacetic Acid]	43.0 min	27.4 min	–	–
CC(C(=O)O)c1ccc(-c2ccccc2)cc1 (stereo not drawn) [4-Phenyl α-Methyl-Phenylacetic Acid]	–	27.4 min	–	–
OCCCCc1ccccc1 [4-Phenyl-1-Butanol]	43.0 min	43.0 min	–	–
CCCc1ccc(N)cc1 [4-Propyl Aniline]	–	7.34 min	–	–
CC(C)(C)c1ccc(N)cc1 [4-tert-Butyl Aniline]	–	27.4 min	–	–
CC(=O)c1ccc(O)cc1 [4′-Hydroxyacetophenone]	50.2 min	50.2 min	–	–
COc1ccc(C(C)=O)cc1 [4′-Methoxyacetophenone]	–	33.4 min	–	–
COc1cc(OC)c2ccc(=O)oc2c1 [5,7-Dimethoxycoumarin]	27.4 min	23.2 min	–	–
Nc1ccc2[nH]ccc2c1 [5-Amino Indole]	–	100.3 min	–	–
Nc1cccc2cc(S(=O)(=O)O)ccc12 [5-Amino-2-naphthalenesulfonic acid]	50.2 min	–	–	–

SMILES	Half-Life of ADR Destruction, 100 μM Test Compound [1]	Half-Life of ADR Destruction, 100 μM Test Compound and 0.5 μM Riboflavin [2]	Half-Life of ADR Destruction, 100 μM Test Compound and 0.5 μM Riboflavin	Half-Life of ADR Destruction, 100 μM Test Compound
O=C(O)C1=CC=C2N=NN=C2C1 [5-Benzotriazole-carboxylic acid]	–	75.3 min	–	–
O=C(Oc1ccc2[nH]ccc2c1)c1ccccc1 [5-Benzoyloxy Indole]	–	43.0 min	–	–
Oc1ccc2[nH]ccc2c1 [5-Hydroxy Indole]	–	150.5 min and 75.3 min	–	–
N[C@@H](Cc1c[nH]c2ccc(O)cc12)C(=O)O [5-Hydroxy-tryptophan]	–	301.0 min	–	–
O=C(O)Cc1c[nH]c2ccc(O)cc12 [5-Hydroxyindole-3-acetic acid]	–	150.5 min	–	–
COc1ccc2[nH]ccc2c1 [5-Methoxy Indole]	–	25.1 min and 14.3 min	–	–
COc1ccc2[nH]c(C)cc2c1 [5-Methoxy-2-methyl Indole]	–	–	7.00 min	27.4 min
COc1ccc2[nH]c(C)c(CC(=O)O)c2c1 [5-Methoxy-2-methylindole-3-acetic acid]	25.1 min	4.78 min	–	–
COc1ccc2[nH]cc(CCO)c2c1 [5-Methoxy-3-indoleethanol]	33.5 min	9.12 min	–	–
COc1ccc2[nH]cc(C[C@H](N)C(=O)O)c2c1 [5-Methoxy-tryptophan]	–	21.5 min	–	–
COc1ccc2[nH]cc(CC(=O)O)c2c1 [5-Methoxyindole-3-acetic acid]	17.7 min	3.67 min	–	–
Cc1ccc2[nH]ccc2c1 [5-Methyl Indole]	–	8.85 min	–	–
Cc1ccc2[nH]cc(C[C@H](N)C(=O)O)c2c1 [5-Methyl-tryptophan]	–	23.2 min	–	–
COc1cc2ccc(=O)oc2cc1OC [6,7-Dimethoxycoumarin]	21.5 min	–	–	–
Nc1ccc2cc(S(=O)(=O)O)cc(O)c2c1 [6-Amino-4-hydroxy-2-naphthalenesulfonic acid]	–	50.2 min	–	–
CC(C(=O)O)c1ccc2c(c1)[nH]c1ccc(Cl)cc12 (stereo not drawn) [6-Chlro-α-methyl-carbazole-2-acetic acid, reference compound]	–	25.6 ± 11.2 min	–	–
COc1ccc2cc[nH]c2c1 [6-Methoxy Indole]	33.5 min	6.27 min	–	–
COc1ccc2c(C)c(C)[nH]c2c1 [6-Methoxy-2,3-dimethyl Indole]	43.0 min	23.2 min	–	–
COc1ccc2cc(C(C)=O)ccc2c1 [6-Methoxy-2-acetonaphthone]	15.8 min	–	–	–
COc1ccc2c(C(=O)C(N)=O)c[nH]c2c1 [6-Methoxy-3-indoleglyoxylamide]	75.3 min	30.1 min	–	–

SMILES	Half-Life of ADR Destruction, 100 μM Test Compound [1]	Half-Life of ADR Destruction, 100 μM Test Compound and 0.5 μM Riboflavin [2]	Half-Life of ADR Destruction, 100 μM Test Compound and 0.5 μM Riboflavin	Half-Life of ADR Destruction, 100 μM Test Compound
CCC(=O)c1ccc2cc(OC)ccc2c1 [6-Methoxy-propionaphthone]	–	–	27.4 min	30.1 min
COc1ccc2c(C(=O)O)cccc2c1 [6-Methoxynaphthalene-1-carboyxlic acid]	18.8 min	4.49 min	–	–
COc1ccc2cc(CC(=O)O)ccc2c1 [6-Methoxynaphthalene-2-acetic acid]	17.7 min	5.38 min	–	–
COc1ccc2cc(C#N)ccc2c1 [6-Methoxynaphthalene-2-nitrile]	23.2 min	20.1 min	–	–
Cc1ccc2cc[nH]c2c1 [6-Methyl Indole]	–	24.2 ± 1.3 min	–	–
CC(=O)c1ccc2cc(C)ccc2c1 [6-Methyl-2-acetonaphthone]	8.85 min	7.53 min	–	–
Nc1ccc2c(O)cc(S(=O)(=O)O)cc2c1 [7-Amino-4-hydroxy-2-naphthalenesulfonic acid]	–	30.1 min	–	–
COc1cc2ccc(=O)oc2cc1O [7-Hydroxy-6-methoxycoumarin]	33.5 min	33.5 min	–	–
COc1cccc2cc[nH]c12 [7-Methoxy Indole]	43.0 min	7.72 min	–	–
COc1ccc2c(CC(=O)O)cc(=O)oc2c1 [7-Methoxycoumarin-4-acetic acid]	14.3 min	11.6 min	–	–
COc1ccc2ccc(=O)oc2c1 [7-Methoxycoumarin]	20.1 min	18.8 min	–	–
Cc1cccc2cc[nH]c12 [7-Methyl Indole]	–	16.7 min	–	–
NC1c2ccccc2-c2ccccc21 [9-Amino Fluorene]	75.3 min	50.2 min	–	–
O=C(O)C1c2ccccc2-c2ccccc21 [9-Fluorene Carboxylic acid]	50.2 min	43.0 min	–	–
O=C(O)c1cccc2c1C(=O)c1ccccc1-2 [9-Fluorenone-1-carboxylic acid]	43.0 min	43.0 min	–	–
O=C(O)c1ccc2c(c1)C(=O)c1ccccc1-2 [9-Fluorenone-2-carboxylic acid]	–	43.0 min	–	–
O=C(O)c1cccc2c1-c1ccccc1C2=O [9-Fluorenone-4-carboxylic acid]	50.2 min	43.0 min	–	–
Cn1c2ccccc2c(=O)c2ccccc21 [10-Methyl-9(10H) Acridone]	–	–	–	16.7 min
COc1ccc2c(c1)c(CC(=O)OCC(=O)O)c(C)n2C(=O)c1ccc(Cl)cc1 [Acemetacin, {[1-(4-Chlorobenzoyl)-5-methoxy-2-methylindole-3-yl]acetoxy} acetic acid, reference compound]	–	4.63 min	–	–
CC(=O)c1ccccc1 [Acetophenone]	43.0 min	43.0 min	–	–
